Columns and labels:
erythrocytes = test: Lysis of erythrocytes; format: cell-based, human; settings: 100 µM; 1 ½ hour; absorbance at 550 nm; vs 2% Triton-X100
Method: (§1) The cytotoxicity of MSP was evaluated by the ability of 100 µM MSP66–76 or MSP66–76E/Q to cause LDH release from HaCaT cells and lysis of erythrocytes.
(§2) Supplementary file ppat.1002625.s006.tif: Table S1 Cytoxic and hemolytic Effect of MSP66–76E/Q and MSP66–76. HaCaT cells were treated with 100 µM of MSP66–76E/Q and MSP66–76 over night. The release of LDH was subsequently determined by colorimetric assay and depicted as percent of LDH release of cells treated with 2% Triton- X100. Erythrocytes were treated for 1 ½ hour with 100 µM of MSP66–76E/Q and MSP66–76 followed by centrifugation. Lysis was determined by measuring hemoglobin in the supernatant by measuring the absorbance at 550 nm. Results are depicted as % of lysis compared to lysis obtained by 2% Triton-X100. (TIF) Click here for additional data file.

[1] = test system: Candida albicans ATCC 90028; test: CFU assay with C. albicans; format: cell-based; settings: for Estimate (difference between means of log values): control - treatment, pH 4
Text: Candida albicans strains: ATCC 90028, CAF-1-2, SC5814, BM4f35II68, vaginal clinical isolates from Dept. of Clincal Microbiology, Skåne University Hospital, SO_303369 and SO_503471. Candida parapsilosis strains: ATCC 90018, BD1800, BD17837, and BM24/68/09. Candida glabrata strains: ATCC 90030, clinical isolates from Dept. of Clincal Microbiology, Skåne University Hospital, SO_3336, SO_3400 and SO_503413. All strains were inoculated from frozen culture and grown in Yeast extract-Peptone-Dextrose (YPD) (Sigma) and on Sabourand Dextrose Broth (SAB) (Difco) plates at 30°C with 5% (v/v) CO2. If not otherwise stated, ATCC 90028 was used for candidacidal experiments.
(§3) Candida albicans was grown over night, washed, and resuspended in 10 mM Tris, 5 mM glucose, pH 7.4 or pH 4. Approximately 4×10^3 to 10^4 CFU of C. albicans were incubated with the test substance in low or neutral pH buffer for 4 h at 37°C. After incubation, the suspension was diluted and plated. Colonies were counted after two days incubation of the plates at 30°C. Bacteria from overnight cultures were inoculated in fresh medium and grown for 3 h, washed in 10 mM Tris, 5 mM glucose pH 7.4. Approximately 8×10^4 CFU were incubated with sample in 10 mM Tris, 5 mM glucose pH 7.4 or pH 4 for 1 h at 37°C, diluted, plated and incubated over night at 37°C and the colonies counted.
Statistical analysis was performed using SAS 9.2 software (SAS Institute, Cary, NC). Colony counts were log transformed. In order to choose the statistical method, interactions between the Treatment and Experiment were investigated. Treatments were screened by doing pair wise comparisons of each treatment to a control. Statistical tests used for the comparisons included MIXED procedure and LSMEANS statement. All tests where P-value<.05 were considered to indicate statistical significance. P-values were not adjusted for the multiple comparisons.
“Estimate” is the estimate of the difference between means of log values of treatment 1 and treatment 2

HaCaT cells = test: LDH release from HaCaT cells; format: cell-based, human; settings: 100 µM; over night; colorimetric; vs 2% Triton-X100
Method: as §1, §2

E. coli (strain 37.4) = test: Antibacterial CFU assay; format: cell-based; settings: purified MSP 10 µM + 20 µM EDTA or recombinant dialyzed MSP 10 µM + 10 µM EDTA; low and neutral pH; data not shown
Method: as §3, with “E. coli (strain 37.4), S. aureus (strain 5120), S. pyogenes (M5 Manfredo), S. agalactiae (SB1), and E. faecalis (strain 2374) were grown in THY medium (Todd Hewitt with addition of yeast) and on THY agar plates at 37°C with 5% (v/v) CO2. Candida” for “Candida”

[2] = test system: E. faecalis (strain 2374); test: Antibacterial CFU assay; format: cell-based; settings: purified MSP 10 µM + 20 µM EDTA or recombinant dialyzed MSP 10 µM + 10 µM EDTA; low and neutral pH; data not shown
Method: as §3, with “E. coli (strain 37.4), S. aureus (strain 5120), S. pyogenes (M5 Manfredo), S. agalactiae (SB1), and E. faecalis (strain 2374) were grown in THY medium (Todd Hewitt with addition of yeast) and on THY agar plates at 37°C with 5% (v/v) CO2. Candida” for “Candida”

[3] = test system: S. pyogenes (M5 Manfredo); test: Antibacterial CFU assay; format: cell-based; settings: purified MSP 10 µM + 20 µM EDTA or recombinant dialyzed MSP 10 µM + 10 µM EDTA; neutral pH; data not shown
Method: as §3, with “E. coli (strain 37.4), S. aureus (strain 5120), S. pyogenes (M5 Manfredo), S. agalactiae (SB1), and E. faecalis (strain 2374) were grown in THY medium (Todd Hewitt with addition of yeast) and on THY agar plates at 37°C with 5% (v/v) CO2. Candida” for “Candida”

S. aureus (strain 5120) = test: Antibacterial CFU assay; format: cell-based; settings: purified MSP 10 µM + 20 µM EDTA or recombinant dialyzed MSP 10 µM + 10 µM EDTA; neutral pH; data not shown
Method: as §3, with “E. coli (strain 37.4), S. aureus (strain 5120), S. pyogenes (M5 Manfredo), S. agalactiae (SB1), and E. faecalis (strain 2374) were grown in THY medium (Todd Hewitt with addition of yeast) and on THY agar plates at 37°C with 5% (v/v) CO2. Candida” for “Candida”

S. agalactiae (SB1) = test: Antibacterial CFU assay; format: cell-based; settings: purified MSP 10 µM + 20 µM EDTA or recombinant dialyzed MSP 10 µM + 10 µM EDTA; neutral pH; data not shown
Method: as §3, with “E. coli (strain 37.4), S. aureus (strain 5120), S. pyogenes (M5 Manfredo), S. agalactiae (SB1), and E. faecalis (strain 2374) were grown in THY medium (Todd Hewitt with addition of yeast) and on THY agar plates at 37°C with 5% (v/v) CO2. Candida” for “Candida”

C. albicans = test: Antifungal gel overlay assay (AU-PAGE); format: cell-based, Candida albicans
Method: Gel overlay assay was performed essentially as described. Briefly, duplicate samples were run on native Acid Urea (AU-PAGE) gels in 5% (v/v) acetic acid at 100 V for 1 h 20 min. Candida albicans was grown over night, washed and resuspended in 10 mM NaPO4 pH 7.4 and approximately 1×10^5 CFU were added to 12 ml melted underlay agarose (10 mM NaPO4, pH 7.4, 0.03% SAB, 1% agarose type 1 (Sigma, St. Louis, MO)) and poured into a square Petri dish. One AU-gel was stained with Coomassie brilliant blue and one AU gel was washed 3×4 min in 10 mM NaPO4, pH 7.4 and then placed on top of the agarose and incubated for 4 h at 37°C. The AU gel was then removed and an overlay agarose (6% SAB, 1% agarosetype 1 (Sigma)) was poured on top of the underlay and incubated over night at 30°C. To make the clearing zones more visible, the agarose was stained with Coomassie brilliant blue followed by destaining.

RIFKKQDCKYI [MSP66–76E/Q, mutated form of MSP66–76 where E71 was substituted with a glutamine]
Lysis of erythrocytes (erythrocytes): No significant LDH release or lysis | Effect of 0.5 mM calcium on antifungal activity ([1]; acidic pH, Figure S2): not inhibited | Estimate (difference between means of log values) ([1]; 140 µM + 0.5 mM calcium, experiment 1): 3.1854 | Estimate (difference between means of log values) ([1]; 140 µM + 0.5 mM calcium, experiment 2): 2.1182 | Estimate (difference between means of log values) ([1]; 140 µM + 0.5 mM calcium, experiment 3): 2.6879 | Estimate (difference between means of log values) ([1]; 140 µM + 0.5 mM magnesium, experiment 1): 4.0137 | Estimate (difference between means of log values) ([1]; 140 µM + 0.5 mM magnesium, experiment 2): 1.7951 | Estimate (difference between means of log values) ([1]; 140 µM + 0.5 mM magnesium, experiment 3): 4.5634 | Estimate (difference between means of log values) ([1]; 140 µM, experiment 1): 5.3523 | Estimate (difference between means of log values) ([1]; 140 µM, experiment 2): 5.6354 | Estimate (difference between means of log values) ([1]; 140 µM, experiment 3): 5.8836 | Calcium concentration inhibiting the antifungal activity ([1]; neutral pH, Figure S2): 50 to 100 µM | LDH release from HaCaT cells (HaCaT cells): No significant LDH release

B1: recombinant MSP: Recombinant human β-microseminoprotein from R&D Systems (protein)
chain: SCYFIPNEGVPGDSTRKCMDLKGNKHPINSEWQTDNCETCTCYETEISCCTLVSTPVGYDKDNCQRIFKKEDCKYIVVEKKDPKKTCSVSEWII
Fungicidal activity in CFU assay ([1]; native MSP 10 µM + 20 µM EDTA or recombinant dialyzed MSP 10 µM + 10 µM EDTA): prominent fungicidal activity | Antibacterial activity in CFU assay (E. coli (strain 37.4)): no antibacterial activity | Antibacterial activity in CFU assay [2]: no antibacterial activity | Antibacterial activity in CFU assay [3]: no antibacterial activity | Antibacterial activity in CFU assay (S. aureus (strain 5120)): no antibacterial activity | Antibacterial activity in CFU assay (S. agalactiae (SB1)): no antibacterial activity | Clearing zone in antifungal gel overlay assay (C. albicans): displayed antifungal activity by producing a clearing zone
